Data taken from article PMC9506044, “Identification of Protosappanoside D from Caesalpinia decapetala and Evaluation of Its Pharmacokinetic, Metabolism and Pharmacological Activity” (Molecules, 2022).
Entries after “also recorded” stand apart in the source; their conditions may differ. Like-named read-outs stand apart in the source and are kept apart here.

Columns and labels:
[1] = Metabolites identification in rat plasma (UHPLC/Q Exactive Plus MS); format: in vivo, Sprague-Dawley rats; conditions: PTD 27.3 mg/kg by gavage twice daily for 3 d, 2 h after last administration
Method: To investigate the PTD metabolites, Sprague-Dawley rats were randomly divided into two groups with six rats in each group. PTD was continuously administered by gavage twice daily for 3 d at a dose of 27.3 mg/kg. Blood was collected from the rat femoral artery 2 h after the last administration, centrifuged at 6000 rpm at 4 °C for 6 min, and 100 μL of plasma was separated and frozen at −20 °C until analysis.
Qualitative analysis of metabolites was conducted on a Vanquish horizon (Thermo Scientific, Waltham, MA, USA) and combined with a Q Exactive Plus Orbitrap MS (QE Plus, Thermo Scientific, USA) system. The separation of PTD and its metabolites was achieved on a Hypersil gold column (2.1 × 150 mm, i.d., 1.9 μm). The mobile phase consisted of water containing 0.1% formic acid (B) and acetonitrile containing 0.1% formic acid (A). The gradient elution program was set as follows: 0–2 min, 5% A; 2–3 min, 5~25% A; 3–6 min, 25~40% A; 6–13 min, 40~95% A; 13–14 min, 95~95% A; 14–15 min, 95~5% A; 15–18 min, 5~5% A; flow rate, 0.3 mL/min. The MS unit parameters were set as follows: the range of data acquisition was 150–1000 m/z, electrospray voltage was 2.5 kV(−), 3.5 kV(+), solvent removal gas flow rate was 8 L/min, and desolvent gas temperature was 320 °C. Acquisition and processing were conducted using the Xcalibur 4.2 software (Thermo Fisher Scientific, USA) and Compound Discoverer 3.2 (Thermo, USA).
A 600 μL aliquot of each plasma sample was transferred into a 5 mL centrifuge tube, 300 μL of 2% formic acid solution and 2.4 mL of methanol was added before vortexing for 2 min. This was followed by sonication in an ultrasonic machine for 10 min, and centrifugation at 13,225× g for 10 min. The supernatant was then placed in a centrifuge tube and evaporated to dryness under a stream of nitrogen at 37 °C. The residues were dissolved in 200 μL of 50% methanol and centrifuged at 13,225× g for 10 min, and 1 μL of the solution was injected into the QE system.

[2] = Pharmacokinetic study in rats after oral and intravenous administration of PTD (UPLC-MS/MS, plasma); format: in vivo; conditions: Sprague-Dawley; for AUC(0-inf) / AUC(0-t) / Cmax / MRT last / MRT inf / half-life / Tmax: rat plasma; for MRT last: read-out: MRT(0–t); for MRT inf: read-out: MRT(0–∞); for half-life: read-out: t1/2z (converted)
Method: Specific pathogen-free Sprague-Dawley rats (230 ± 10 g) were purchased from Changsha Tianqin Biotechnology Co., Ltd. (Changsha, China; certificate no. SCXK (Xiang) 2014-0010). Before starting the experiments, the rats were allowed one week of acclimatization in the animal quarters under air conditioning (25 ± 1 °C) and an automatically controlled photoperiod of 12 h of light daily. They were fed with standard rodent chow and tap water ad libitum. Rats were fasted for 12 h before the start of the experiment but were free to drink water. All experiments were approved by the Animal Ethics Committee of Guizhou Medical University and conducted in accordance with the guidelines of the Committee on the Care and Use of Laboratory Animals in China.
For the pharmacokinetic study, 12 rats were randomly divided into two groups, with 6 rats in each group. In the oral administration group, PTD was intragastrically administered to the rats at a dose of 27.3 mg/kg. For intravenous administration, PTD was injected at a dose of 9.1 mg/kg via the tail vein. Blood samples (0.3 mL) were collected directly from the caudal vein using anticoagulant centrifugal tubes at 0.083, 0.167, 0.33, 0.5, 0.75, 1, 1.5, 2, 4, 6, 9, 12 and 24 h after intravenous and oral administration, respectively. The blood sample was centrifuged at 6000 rpm for 6 min, and the supernatant plasma was transferred into a new clean tube and stored at −80 °C prior to further use.
The UPLC-MS/MS system consisted of an ACQUITY I-Class UPLC system and an XEVO TQ-S triple-quadrupole tandem mass spectrometer (Waters Corp., Milford, MA, USA) equipped with an ESI source. Chromatographic separation was performed using a UPLC BEN C18 column (2.1 × 50 mm, […]; Waters Corp., Milford, MA, USA) at 40 °C. The mobile phase consisted of water containing 0.2% formic acid (B) and acetonitrile containing 0.2% formic acid (A) delivered at 0.3 mL/min as a gradient as follows: 0–0.5 min, 10% A; 0.5–3 min, 90% A; 3–4 min, 90% A; 4–4.5 min, 10% A; 4.5–5 min, 10% A. Waters XEVO TQ-S triple-quadrupole mass spectrometer equipped with an ESI source was used for the mass analysis and detection. The main working parameters were set as follows: source temperature, 120 °C; desolvation temperature, 350 °C; and nebuliser gas (N2), 650 L/h. The scan time for all analytes was set at 0.2 s and acquisition and processing were conducted on a Micromass Masslynx4.1.
A 100 μL aliquot of each plasma sample was transferred into a 1.5 mL centrifuge tube, and 50 μL of 2% formic acid solution was added before vortexing for 30 s. Subsequently, the internal standard (IS) (50 μL of 20 ng/mL puerarin) and 400 μL of methanol were added and vortexed for 1 min. For subsequent treatment methods were the same as mentioned in the above section (4.7.1); finally, 1 μL of the solution was injected into the UPLC-MS/MS system.
Compound discoverer 3.2 was used for the analysis of metabolites of PTD; WinNonlin was used for the analysis of pharmacokinetic parameters, and Graphpad 8.2 was used for the illustrations. Data are expressed as mean ± SD. Statistical analysis was performed using the Statistical Product and Service Solutions software package (SPSS 22.0, SPSS Inc., Chicago, IL, USA). The results were analyzed using one-way ANOVA and bioavailability (F) was calculated according to the equation reported in He et al..

RAW264.7 cells = assay: MTS cell viability assay on RAW264.7 cells; format: cell-based; conditions: 24 h treatment
Method: (§1) RAW264.7 cells, obtained from American Type Culture Collection (ATCC, Manassas, VA, USA), were cultured in Dulbecco’s modified Eagle’s medium (DMEM) (Life Technologies, Grand Island, NY, USA) supplemented with 10% fetal bovine serum (FBS) and 1% penicillin-streptomycin (Grand Island, NY, USA). The cultures were incubated at 37 °C in a humidified atmosphere containing 5% CO2.
Cell viability was determined using the MTS cell viability assay kit. RAW264.7 cells were cultured at a density of 1 × 10^5 cells per well in 96-well plates by the treatment with various concentrations of PTD and PTB, respectively. After 24 h, 5 µL MTS was added to each well and incubated for 3 h. The plates were then read at 490 nm using a microplate reader.

[3] = Stability of the analytes in rat plasma under various storage conditions; format: in vitro ADME
Method: The stability of analytes in rat plasma was assessed using QC samples at low, medium and high concentrations (n = 5 for each concentration level) under three conditions: (1) at room temperature for 24 h; (2) refrigerated at 4 °C for 24 h; and (3) three freeze-thaw cycles.

[4] = system: LPS-stimulated RAW264.7 cells; assay: Secretion of TNF-α, IL-1β and IL-6 by LPS-induced RAW264.7 cells (ELISA); format: cell-based; conditions: 200 μmol/L, LPS 1 μg/mL, 24 h, compared to the model group
Method: as §1
RAW264.7 cells (1 × 10^5 cells/well in a 96-well plate) were treated with PTD, PTB (200 μmol/L) and stimulated by LPS (1 μg/mL) for 24 h. As a positive control, the impacts of Dex on LPS-induced RAW264.7 cells were also determined parallelly. The supernatants were then collected, and the accumulated NO level was determined using Griess reagent. The concentrations of TNF-α, IL-6 and IL-1β in conditioned media were measured using enzyme-linked immunosorbent assay (ELISA) according to the supplier’s instructions.

[5] = po, intragastric administration of PTD 27.3 mg/kg
[6] = rat, plasma, po, 27.3 mg/kg, intragastric administration of PTD 27.3 mg/kg
[7] = intravenous administration of PTD 9.1 mg/kg

Compound	Identification (metabolic pathway from PTD) [1]	AUC(0-inf) [2, 5] [ng·h/mL]	AUC(0-t) [2, 5] [ng·h/mL]	Cmax [2, 5] [ng/mL]	MRT last [2, 5] [h]	MRT inf [2, 5] [h]	half-life [2, 5] [h]	Tmax [2, 6] [h]	AUC(0-inf) [2, 7] [ng·h/mL]	AUC(0-t) [2, 7] [ng·h/mL]	MRT last [2, 7] [h]	MRT inf [2, 7] [h]	half-life [2, 7] [h]	concentration with no cytotoxicity to RAW264.7 cells (RAW264.7 cells)	secretion of IL-1β [4]	secretion of IL-6 [4]	secretion of TNF-α [4]	further results
COC1(C(=O)O)COc2cc(O[C@@H]3O[C@H](CO)[C@@H](O)[C@H](O)[C@H]3O)ccc2-c2cc(O)c(O)cc2C1 (stereo partly shown) [M4]	Desaturation, Oxidation, Methylation																	
OCC1OC(Oc2ccc3c(c2)OCC(O)(CO)Cc2cc(O)c(O)cc2-3)C(O)C(O)C1O [PTD, protosappanin B-3-O-β-D-glucoside]		405 ± 224	382 ± 211	250 ± 176	3.06 ± 0.63	4.15 ± 1.09	3.47 ± 0.78	~0.49	19700	19400	1.8 ± 0.5	2.4 ± 0.83	3.65 ± 1.26	below 200 μmol/L	downregulate; also recorded: significantly reduced; also recorded: significantly downregulated	downregulate; also recorded: significantly reduced; also recorded: significantly downregulated	downregulate; also recorded: significantly reduced; also recorded: significantly downregulated	bioavailability ([2]; rat, plasma, oral, 27.3 mg/kg, rat, oral 27.3 mg/kg vs intravenous 9.1 mg/kg): 0.65%; Measured Concentration (Mean ± SD) ([3]; 4 °C for 24 h, nominal 5.01 ng/mL): 4.96 ± 0.65 ng/mL; Measured Concentration (Mean ± SD) ([3]; 4 °C for 24 h, nominal 250.5 ng/mL): 236.32 ± 13.98 ng/mL; Measured Concentration (Mean ± SD) ([3]; 4 °C for 24 h, nominal 15,030 ng/mL): 15,122.74 ± 959.18 ng/mL; Measured Concentration (Mean ± SD) ([3]; Room temperature for 24 h, nominal 5.01 ng/mL): 5.61 ± 0.32 ng/mL; Measured Concentration (Mean ± SD) ([3]; Room temperature for 24 h, nominal 250.5 ng/mL): 241.97 ± 8.73 ng/mL; Measured Concentration (Mean ± SD) ([3]; Room temperature for 24 h, nominal 15,030 ng/mL): 15,135.44 ± 1324.59 ng/mL; Measured Concentration (Mean ± SD) ([3]; three freeze-thaw cycles, nominal 5.01 ng/mL): 5.23 ± 0.58 ng/mL; Measured Concentration (Mean ± SD) ([3]; three freeze-thaw cycles, nominal 250.5 ng/mL): 260.48 ± 17.36 ng/mL; Measured Concentration (Mean ± SD) ([3]; three freeze-thaw cycles, nominal 15,030 ng/mL): 14,844.73 ± 346.61 ng/mL
COc1ccc2c(c1)OC(CO)=Cc1cc(O)c(O)cc1-2 [M2]	Dealkylation, Dehydration																	
COC1=CC=C(c2cc(O)c(O)cc2C#CC=O)C(=O)C1 [M3]	Dealkylation, Dehydration, Desaturation																	
OCC1(O)COc2cc(O)ccc2-c2cc(O)c(O)cc2C1 (stereo not shown) [PTB, protosappanin B, reference compound]	desugarization	204 ± 43.9	179 ± 45	31.1 ± 10.5	7.41 ± 0.77	11.1 ± 2.32	7.79 ± 1.59	1.42 ± 0.49	230 ± 71.9	202 ± 59.5	6.45 ± 2.15	10.5 ± 3.88	6.78 ± 2.69	below 300 μmol/L	significantly reduced; also recorded: significantly downregulated	significantly reduced; also recorded: significantly downregulated	significantly reduced; also recorded: significantly downregulated	Measured Concentration (Mean ± SD) ([3]; 4 °C for 24 h, nominal 2.51 ng/mL): 2.32 ± 0.11 ng/mL; Measured Concentration (Mean ± SD) ([3]; 4 °C for 24 h, nominal 20.08 ng/mL): 24.62 ± 1.12 ng/mL; Measured Concentration (Mean ± SD) ([3]; 4 °C for 24 h, nominal 251 ng/mL): 223.94 ± 15.73 ng/mL; Measured Concentration (Mean ± SD) ([3]; Room temperature for 24 h, nominal 2.51 ng/mL): 2.17 ± 0.13 ng/mL; Measured Concentration (Mean ± SD) ([3]; Room temperature for 24 h, nominal 20.08 ng/mL): 21.81 ± 1.46 ng/mL; Measured Concentration (Mean ± SD) ([3]; Room temperature for 24 h, nominal 251 ng/mL): 244.31 ± 8.62 ng/mL; Measured Concentration (Mean ± SD) ([3]; three freeze-thaw cycles, nominal 2.51 ng/mL): 2.68 ± 0.03 ng/mL; Measured Concentration (Mean ± SD) ([3]; three freeze-thaw cycles, nominal 20.08 ng/mL): 19.43 ± 1.08 ng/mL; Measured Concentration (Mean ± SD) ([3]; three freeze-thaw cycles, nominal 251 ng/mL): 259.84 ± 23.13 ng/mL
